From publication PMC8371461 (Frontiers in Pharmacology, 2021)

How the values were obtained:
[1] = biological target: T1, CDK4-cyclinD1 (Homo sapiens, UniProt P11802); experiment: kinome scan; type: binding; conditions: 10 µM
T1 construct: purchased DiscoverX (KINOMEscan)

[2] = biological target: T2, CSNK2A1 (Homo sapiens, UniProt P68400); experiment: kinome scan; type: binding; conditions: 10 µM
T2 construct: purchased DiscoverX (KINOMEscan)

[3] = biological target: T3, EPHA6 (Homo sapiens, UniProt Q9UF33); experiment: kinome scan; type: binding; conditions: 10 µM
T3 construct: purchased DiscoverX (KINOMEscan)

[4] = biological target: T4, ERK8 (Homo sapiens, UniProt Q8TD08); experiment: kinome scan; type: binding; conditions: 10 µM
T4 construct: purchased DiscoverX (KINOMEscan)

[5] = biological target: T5, GAK (Homo sapiens, UniProt O14976); experiment: kinome scan; type: binding
T5 construct: T7 phage fusion (kinase-tagged phage); purchased DiscoverX; host or cells: BL21-derived E. coli (T7 phage)
T5 sequence (O14976 1-1311): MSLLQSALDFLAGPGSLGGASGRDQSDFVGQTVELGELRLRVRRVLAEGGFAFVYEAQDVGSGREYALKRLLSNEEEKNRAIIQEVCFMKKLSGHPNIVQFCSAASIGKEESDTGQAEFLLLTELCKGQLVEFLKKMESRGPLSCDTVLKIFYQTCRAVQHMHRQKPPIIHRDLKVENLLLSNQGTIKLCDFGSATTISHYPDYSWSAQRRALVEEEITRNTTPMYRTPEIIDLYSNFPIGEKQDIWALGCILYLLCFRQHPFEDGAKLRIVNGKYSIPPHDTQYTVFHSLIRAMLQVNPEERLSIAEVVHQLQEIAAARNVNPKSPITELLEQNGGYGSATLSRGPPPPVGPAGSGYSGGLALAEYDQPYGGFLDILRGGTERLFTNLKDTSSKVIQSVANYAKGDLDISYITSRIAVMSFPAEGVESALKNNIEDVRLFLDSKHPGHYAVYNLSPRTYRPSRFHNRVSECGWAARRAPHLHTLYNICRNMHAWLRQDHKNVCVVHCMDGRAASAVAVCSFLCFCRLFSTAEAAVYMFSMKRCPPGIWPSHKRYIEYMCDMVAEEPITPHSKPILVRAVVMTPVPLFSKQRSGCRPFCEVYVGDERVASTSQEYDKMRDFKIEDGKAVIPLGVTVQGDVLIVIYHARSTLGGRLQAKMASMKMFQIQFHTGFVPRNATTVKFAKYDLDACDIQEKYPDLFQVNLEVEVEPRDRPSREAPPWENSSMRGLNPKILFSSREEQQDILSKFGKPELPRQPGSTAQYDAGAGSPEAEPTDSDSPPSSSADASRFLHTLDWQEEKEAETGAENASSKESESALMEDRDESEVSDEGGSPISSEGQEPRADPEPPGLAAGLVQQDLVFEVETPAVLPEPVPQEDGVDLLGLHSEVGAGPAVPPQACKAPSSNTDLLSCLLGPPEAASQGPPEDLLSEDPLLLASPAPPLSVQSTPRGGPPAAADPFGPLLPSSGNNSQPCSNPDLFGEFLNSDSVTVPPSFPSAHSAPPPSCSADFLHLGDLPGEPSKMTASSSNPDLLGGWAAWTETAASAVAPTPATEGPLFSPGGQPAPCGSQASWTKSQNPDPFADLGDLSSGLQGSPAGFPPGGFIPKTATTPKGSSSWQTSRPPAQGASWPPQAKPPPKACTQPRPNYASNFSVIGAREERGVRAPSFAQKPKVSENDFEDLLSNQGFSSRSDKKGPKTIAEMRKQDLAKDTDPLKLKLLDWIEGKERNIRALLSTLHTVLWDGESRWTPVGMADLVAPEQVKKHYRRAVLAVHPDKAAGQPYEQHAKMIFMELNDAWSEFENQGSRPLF

[6] = biological target: T6, IKK-epsilon (Homo sapiens, UniProt Q14164); experiment: kinome scan; type: binding; conditions: 10 µM
T6 construct: purchased DiscoverX (KINOMEscan)

[7] = biological target: T7, MAP4K4 (Homo sapiens, UniProt O95819); experiment: kinome scan; type: binding; conditions: 10 µM
T7 construct: purchased DiscoverX (KINOMEscan)

[8] = biological target: T8, MEK1 (Homo sapiens, UniProt Q02750); experiment: kinome scan; type: binding; conditions: 10 µM
T8 construct: purchased DiscoverX (KINOMEscan)

[9] = biological target: T9, p38-alpha (Homo sapiens, UniProt Q16539); experiment: kinome scan; type: binding; conditions: 10 µM
T9 construct: purchased DiscoverX (KINOMEscan)

[10] = biological target: T10, PFTK1 (Homo sapiens, UniProt O94921); experiment: kinome scan; type: binding; conditions: 10 µM
T10 construct: purchased DiscoverX (KINOMEscan)

[11] = biological target: T11, PIM3 (Homo sapiens, UniProt Q86V86); experiment: kinome scan; type: binding; conditions: 10 µM
T11 construct: purchased DiscoverX (KINOMEscan)

[12] = biological target: T12, PKN1 (Homo sapiens, UniProt Q16512); experiment: kinome scan; type: binding; conditions: 10 µM
T12 construct: purchased DiscoverX (KINOMEscan)

[13] = biological target: T13, PRKCD (Homo sapiens, UniProt Q05655); experiment: kinome scan; type: binding; conditions: 10 µM
T13 construct: purchased DiscoverX (KINOMEscan)

[14] = biological target: T14, PRKG1 (Homo sapiens, UniProt Q13976); experiment: kinome scan; type: binding; conditions: 10 µM
T14 construct: purchased DiscoverX (KINOMEscan)

[15] = biological target: T15, STK36 (Homo sapiens, UniProt Q9NRP7); experiment: kinome scan; type: binding; conditions: 10 µM
T15 construct: purchased DiscoverX (KINOMEscan)

[16] = biological target: T16, STK39 (Homo sapiens, UniProt Q9UEW8); experiment: kinome scan; type: binding; conditions: 10 µM
T16 construct: purchased DiscoverX (KINOMEscan)

[17] = biological target: T17, WEE1 (Homo sapiens, UniProt P30291); experiment: kinome scan; type: binding; conditions: 10 µM
T17 construct: purchased DiscoverX (KINOMEscan)

[18] = tested on: CGR8 PSC; experiment: ATP quantification (ATPlite), cell proliferation/viability; type: cell-based, mouse; conditions: PSC exposed for three days
Method: Cell viability was measured in PSC by using the ATPlite Luminescence Assay System (Perkin Elmer). PSC were plated in gelatine-coated 96-well plates at a density of 10,000 cells-cm^2 in their standard medium. At different time points, the substrate for emission of luminescence in the presence of ATP was added according to the manufacturer’s instructions. Luminescence was measured with the SpectraMax L Microplate Luminometer (Molecular Devices).
The effects of the drug on proliferation or differentiation was next investigated in quantitative assays.

[19] = tested on: HeLa cells; experiment: LC3B positive autophagosomes, immunofluorescent staining; type: cell-based; conditions: 10 µM, three days
Method: Cells were fixed with PBS containing 0.5% of para-formaldehyde for 15 min at room temperature. After three washing steps in PBS, cells were permeabilized with PBS containing 0.3% of Triton X-100 (Sigma) for 1 h at room temperature. After washing with PBS three times, cells were incubated overnight with the anti-LC3B antibody in PBS with 1% bovine serum albumin (Sigma) at 4°C. After three washing steps in PBS, cells were incubated with the fluorescent secondary antibody for 90 min at 4°C in PBS with 1% bovine serum albumin. They were then incubated with […] DAPI (Thermofisher) in PBS for 15 min. After washing with PBS, cells were rinsed once in water prior to mounting in the FluorSave reagent (Millipore).
Depending of these transitory environmental conditions, autophagy can either promote survival or apoptosis ([Degtyarev et al., 2008]). PIK/AKT pathway inhibition has been reported to increase cell autophagy ([Palmieri et al., 2017]). More specifically, PIP4K2C has been described as a down-regulator of autophagy ([Sharma et al., 2019]).

[20] = tested on: Tau Fibril Formation, Thioflavin T Binding; design: method as in CHEMBL1614421; conditions: reported activity, data mining; ref CHEMBL1614421; cited from earlier work

T12 sequence (Q16512 whole entry): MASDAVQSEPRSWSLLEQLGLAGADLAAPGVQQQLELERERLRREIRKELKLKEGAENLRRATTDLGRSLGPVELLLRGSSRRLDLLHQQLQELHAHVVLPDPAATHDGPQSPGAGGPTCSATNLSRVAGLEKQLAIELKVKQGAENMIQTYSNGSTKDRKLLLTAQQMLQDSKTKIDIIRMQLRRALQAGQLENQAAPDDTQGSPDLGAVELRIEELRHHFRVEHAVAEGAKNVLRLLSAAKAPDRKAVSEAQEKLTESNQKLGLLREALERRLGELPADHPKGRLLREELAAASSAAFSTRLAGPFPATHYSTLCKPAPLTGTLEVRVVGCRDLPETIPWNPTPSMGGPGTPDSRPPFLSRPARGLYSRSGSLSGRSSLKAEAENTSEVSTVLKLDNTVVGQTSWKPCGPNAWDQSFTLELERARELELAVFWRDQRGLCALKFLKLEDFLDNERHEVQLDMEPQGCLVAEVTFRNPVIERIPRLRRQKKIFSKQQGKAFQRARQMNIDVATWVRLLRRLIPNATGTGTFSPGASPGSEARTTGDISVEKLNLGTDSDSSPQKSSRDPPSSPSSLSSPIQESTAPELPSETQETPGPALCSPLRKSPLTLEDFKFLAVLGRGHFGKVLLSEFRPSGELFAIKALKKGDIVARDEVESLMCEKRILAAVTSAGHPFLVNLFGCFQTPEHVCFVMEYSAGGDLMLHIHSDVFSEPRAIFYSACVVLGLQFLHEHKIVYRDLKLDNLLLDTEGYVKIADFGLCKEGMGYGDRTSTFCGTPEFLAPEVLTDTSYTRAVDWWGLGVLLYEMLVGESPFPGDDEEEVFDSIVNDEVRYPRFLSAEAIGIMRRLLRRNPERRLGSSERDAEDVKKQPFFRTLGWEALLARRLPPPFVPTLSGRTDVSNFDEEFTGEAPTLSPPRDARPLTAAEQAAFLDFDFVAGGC
T4 sequence (Q8TD08 whole entry): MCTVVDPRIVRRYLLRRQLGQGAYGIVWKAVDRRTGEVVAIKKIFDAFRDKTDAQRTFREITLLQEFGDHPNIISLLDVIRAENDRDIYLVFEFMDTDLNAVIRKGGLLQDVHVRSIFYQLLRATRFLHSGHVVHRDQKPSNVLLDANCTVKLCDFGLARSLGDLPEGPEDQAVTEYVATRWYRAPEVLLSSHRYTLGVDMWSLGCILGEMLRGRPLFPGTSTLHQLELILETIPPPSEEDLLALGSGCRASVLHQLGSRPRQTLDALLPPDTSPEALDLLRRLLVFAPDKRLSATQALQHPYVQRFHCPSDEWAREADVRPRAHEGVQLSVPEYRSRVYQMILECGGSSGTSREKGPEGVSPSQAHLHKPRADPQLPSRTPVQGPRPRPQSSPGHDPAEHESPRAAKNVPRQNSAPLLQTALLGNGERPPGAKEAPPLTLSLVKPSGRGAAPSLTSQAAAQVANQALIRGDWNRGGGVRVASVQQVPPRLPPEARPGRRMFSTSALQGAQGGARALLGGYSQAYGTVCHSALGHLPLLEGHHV
T13 sequence (Q05655 whole entry): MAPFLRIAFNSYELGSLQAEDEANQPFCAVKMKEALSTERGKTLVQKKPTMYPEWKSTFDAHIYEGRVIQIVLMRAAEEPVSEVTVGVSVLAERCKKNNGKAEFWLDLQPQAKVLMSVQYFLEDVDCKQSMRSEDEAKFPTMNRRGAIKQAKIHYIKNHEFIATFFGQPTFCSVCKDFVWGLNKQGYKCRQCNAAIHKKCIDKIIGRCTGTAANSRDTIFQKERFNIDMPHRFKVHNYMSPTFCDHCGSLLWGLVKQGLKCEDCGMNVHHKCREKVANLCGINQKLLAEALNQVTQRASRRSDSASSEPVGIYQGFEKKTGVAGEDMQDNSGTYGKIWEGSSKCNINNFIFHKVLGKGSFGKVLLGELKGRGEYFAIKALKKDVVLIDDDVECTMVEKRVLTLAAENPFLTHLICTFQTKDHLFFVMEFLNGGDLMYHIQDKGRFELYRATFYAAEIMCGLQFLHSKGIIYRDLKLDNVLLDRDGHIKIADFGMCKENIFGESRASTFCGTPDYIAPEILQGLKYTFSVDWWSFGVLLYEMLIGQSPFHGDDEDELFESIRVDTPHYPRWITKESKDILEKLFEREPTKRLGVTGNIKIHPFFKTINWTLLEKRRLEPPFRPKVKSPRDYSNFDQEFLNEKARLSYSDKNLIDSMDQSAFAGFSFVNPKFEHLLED
T2 sequence (P68400 whole entry): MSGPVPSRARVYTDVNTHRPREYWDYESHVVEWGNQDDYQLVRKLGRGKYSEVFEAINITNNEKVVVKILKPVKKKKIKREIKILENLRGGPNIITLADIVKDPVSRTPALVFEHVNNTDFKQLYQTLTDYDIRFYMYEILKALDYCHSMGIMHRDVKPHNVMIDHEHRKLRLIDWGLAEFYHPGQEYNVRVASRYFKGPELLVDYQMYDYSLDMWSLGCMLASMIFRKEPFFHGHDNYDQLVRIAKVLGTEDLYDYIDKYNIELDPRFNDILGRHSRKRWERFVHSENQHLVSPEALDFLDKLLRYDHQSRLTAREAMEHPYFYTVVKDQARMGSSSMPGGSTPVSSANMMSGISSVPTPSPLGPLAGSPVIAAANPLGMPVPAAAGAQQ
T9 sequence (Q16539 whole entry): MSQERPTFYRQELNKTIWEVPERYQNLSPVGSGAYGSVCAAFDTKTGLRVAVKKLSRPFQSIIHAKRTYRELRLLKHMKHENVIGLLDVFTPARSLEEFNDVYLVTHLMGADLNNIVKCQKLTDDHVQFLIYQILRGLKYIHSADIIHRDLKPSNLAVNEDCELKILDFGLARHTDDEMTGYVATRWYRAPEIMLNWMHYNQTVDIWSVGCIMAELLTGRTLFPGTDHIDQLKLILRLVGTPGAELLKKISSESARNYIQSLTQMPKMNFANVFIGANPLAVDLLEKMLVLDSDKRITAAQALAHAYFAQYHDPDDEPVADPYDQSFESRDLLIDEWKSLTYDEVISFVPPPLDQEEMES
T15 sequence (Q9NRP7 whole entry): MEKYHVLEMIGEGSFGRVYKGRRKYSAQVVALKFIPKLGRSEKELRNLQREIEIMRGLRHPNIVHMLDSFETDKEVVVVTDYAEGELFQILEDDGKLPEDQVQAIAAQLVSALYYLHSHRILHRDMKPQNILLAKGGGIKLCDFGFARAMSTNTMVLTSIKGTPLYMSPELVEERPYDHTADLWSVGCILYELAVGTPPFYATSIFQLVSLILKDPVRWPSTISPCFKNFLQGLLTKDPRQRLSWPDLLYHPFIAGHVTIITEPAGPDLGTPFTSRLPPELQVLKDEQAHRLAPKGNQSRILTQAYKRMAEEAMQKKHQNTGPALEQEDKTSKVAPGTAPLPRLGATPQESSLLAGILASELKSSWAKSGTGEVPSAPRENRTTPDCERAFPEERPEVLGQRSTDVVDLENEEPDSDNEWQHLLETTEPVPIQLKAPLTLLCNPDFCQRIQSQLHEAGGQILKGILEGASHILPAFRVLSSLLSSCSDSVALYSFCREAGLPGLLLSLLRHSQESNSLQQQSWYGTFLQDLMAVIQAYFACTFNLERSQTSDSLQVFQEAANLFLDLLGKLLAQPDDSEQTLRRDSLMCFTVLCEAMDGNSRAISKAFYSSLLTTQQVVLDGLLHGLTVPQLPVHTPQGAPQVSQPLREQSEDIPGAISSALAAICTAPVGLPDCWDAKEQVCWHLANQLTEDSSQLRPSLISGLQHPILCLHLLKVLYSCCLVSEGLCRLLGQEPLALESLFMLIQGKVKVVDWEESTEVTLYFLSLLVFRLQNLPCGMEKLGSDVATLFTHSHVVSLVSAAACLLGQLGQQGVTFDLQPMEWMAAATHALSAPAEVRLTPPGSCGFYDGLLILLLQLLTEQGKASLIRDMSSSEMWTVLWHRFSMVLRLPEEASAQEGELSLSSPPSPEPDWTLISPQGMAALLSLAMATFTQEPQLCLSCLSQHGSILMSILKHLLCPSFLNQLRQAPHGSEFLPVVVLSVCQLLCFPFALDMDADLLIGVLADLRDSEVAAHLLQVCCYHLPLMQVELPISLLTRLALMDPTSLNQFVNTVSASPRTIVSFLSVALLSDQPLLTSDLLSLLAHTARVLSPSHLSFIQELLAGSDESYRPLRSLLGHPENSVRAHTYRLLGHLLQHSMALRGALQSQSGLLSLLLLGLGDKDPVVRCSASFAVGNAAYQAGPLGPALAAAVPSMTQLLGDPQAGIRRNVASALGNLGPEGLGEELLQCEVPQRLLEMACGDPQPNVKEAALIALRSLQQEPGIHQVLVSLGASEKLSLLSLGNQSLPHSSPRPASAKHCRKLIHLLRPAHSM
T14 sequence (Q13976 whole entry): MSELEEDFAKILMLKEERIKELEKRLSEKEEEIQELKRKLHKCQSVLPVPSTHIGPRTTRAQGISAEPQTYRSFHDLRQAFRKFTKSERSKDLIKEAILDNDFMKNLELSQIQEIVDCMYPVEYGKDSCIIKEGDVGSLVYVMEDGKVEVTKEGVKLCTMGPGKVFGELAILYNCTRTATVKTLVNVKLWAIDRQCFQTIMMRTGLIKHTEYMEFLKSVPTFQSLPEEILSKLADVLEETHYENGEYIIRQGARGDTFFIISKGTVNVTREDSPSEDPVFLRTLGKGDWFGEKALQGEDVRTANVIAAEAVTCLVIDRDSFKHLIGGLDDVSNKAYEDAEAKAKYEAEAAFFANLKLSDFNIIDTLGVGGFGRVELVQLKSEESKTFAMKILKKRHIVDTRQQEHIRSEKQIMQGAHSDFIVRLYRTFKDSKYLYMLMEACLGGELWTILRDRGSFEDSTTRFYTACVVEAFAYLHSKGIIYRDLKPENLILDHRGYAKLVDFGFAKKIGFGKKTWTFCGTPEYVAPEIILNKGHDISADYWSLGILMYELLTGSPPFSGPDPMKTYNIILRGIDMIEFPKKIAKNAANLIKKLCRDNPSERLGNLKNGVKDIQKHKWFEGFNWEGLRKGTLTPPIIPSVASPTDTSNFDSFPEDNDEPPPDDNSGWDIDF

## Nc1ccc(N=Nc2ccccc2)c(N)n1 [phenazopyridine, 2,6-diamino-3-(phenylazo)pyridine]
[1]
  kinase inhibition: 100
[2]
  kinase inhibition: 86
[3]
  kinase inhibition: 91
[4]
  kinase inhibition: 100
[5]; 10 µM
  remaining binding (% of control): 16
[5]; read-out: % Of control
  remaining binding at 10 µM: 16%
[6]
  kinase inhibition: 72
[7]
  kinase inhibition: 100
[8]
  kinase inhibition: 99
[9]
  kinase inhibition: 100
[10]
  kinase inhibition: 100
[11]
  kinase inhibition: 100
[12]
  kinase inhibition: 100
[13]
  kinase inhibition: 100
[14]
  kinase inhibition: 92
[15]
  kinase inhibition: 99
[16]
  kinase inhibition: 100
[17]
  kinase inhibition: 100
[18]
  ATP levels: unchanged
[19]
  number of LC3B-positive autophagosomes: increased
[20]
  Concentration: 3.9 µM
